Measured values as given in ChEMBL document CHEMBL1141695, “Discovery of thieno[2,3-c]pyridines as potent COT inhibitors” (Bioorg Med Chem Lett, 2008).

Tests used:
[1] = molecular target: T1, Mitogen-activated protein kinase kinase kinase 8 (Homo sapiens, UniProt P41279); experiment: Inhibition of human recombinant COT by HTRF-based assay
[2] = molecular target: Dual specificity mitogen-activated protein kinase kinase 1 (Homo sapiens, UniProt Q02750); experiment: Inhibition of MEK1 by HTRF assay
Chain of Dual specificity mitogen-activated protein kinase kinase 1 (Q02750 whole entry): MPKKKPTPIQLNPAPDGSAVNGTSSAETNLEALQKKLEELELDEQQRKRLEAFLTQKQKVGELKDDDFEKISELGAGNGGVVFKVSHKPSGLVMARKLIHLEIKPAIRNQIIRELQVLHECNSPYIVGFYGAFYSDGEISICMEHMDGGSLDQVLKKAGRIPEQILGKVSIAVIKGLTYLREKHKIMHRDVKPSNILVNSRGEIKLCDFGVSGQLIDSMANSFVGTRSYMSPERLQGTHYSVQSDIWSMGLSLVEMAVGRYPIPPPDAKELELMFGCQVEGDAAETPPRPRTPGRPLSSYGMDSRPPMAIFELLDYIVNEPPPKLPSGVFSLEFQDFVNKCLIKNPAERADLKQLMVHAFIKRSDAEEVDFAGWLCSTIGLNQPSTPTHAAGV

[3] = Inhibition of ERK phosphorylation in LPS-stimulated mouse PEC by HTRF assay
[4] = molecular target: T1, Mitogen-activated protein kinase kinase kinase 8; experiment: Inhibition of COT by cell-based HTRF assay

T1 sequence (P41279 whole entry): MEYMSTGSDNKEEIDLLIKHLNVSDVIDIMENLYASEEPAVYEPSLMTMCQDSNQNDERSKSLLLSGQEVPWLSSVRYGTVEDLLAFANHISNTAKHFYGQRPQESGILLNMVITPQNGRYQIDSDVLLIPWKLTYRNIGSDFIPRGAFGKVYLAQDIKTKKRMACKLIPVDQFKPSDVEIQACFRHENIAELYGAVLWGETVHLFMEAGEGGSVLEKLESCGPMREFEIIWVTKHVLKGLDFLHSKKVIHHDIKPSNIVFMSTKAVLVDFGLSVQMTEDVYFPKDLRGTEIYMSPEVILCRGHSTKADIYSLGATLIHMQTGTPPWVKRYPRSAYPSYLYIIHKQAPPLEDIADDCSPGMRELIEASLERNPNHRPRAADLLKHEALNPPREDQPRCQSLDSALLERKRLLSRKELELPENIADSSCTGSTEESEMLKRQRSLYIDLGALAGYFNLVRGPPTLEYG

| SMILES | IC50 [1] [nM] | IC50 [2] [nM] | IC50 [3] [nM] | IC50 [4] [nM] |
| --- | --- | --- | --- | --- |
| c1ccc(-c2ccccc2Oc2cncc3sc(-c4nn[nH]n4)cc23)cc1 | 15000 |  |  |  |
| c1ccc(Oc2cncc3sc(-c4nn[nH]n4)cc23)cc1 | 2200 |  |  |  |
| O=C(O)c1cc2c(Oc3ccc(I)cc3)cncc2s1 | 940 |  |  |  |
| Brc1ccc(Oc2cncc3sc(-c4nnn[nH]4)cc23)cc1 | 1600 |  |  |  |
| Clc1ccc(Oc2cncc3sc(-c4nnn[nH]4)cc23)cc1 | 710 |  |  |  |
| Ic1ccc(Oc2cncc3sc(-c4nn[nH]n4)cc23)cc1 | 410 |  |  |  |
| COc1ccccc1-c1ccc(Oc2cncc3sc(-c4nnn[nH]4)cc23)cc1 | 320 | 21800 |  |  |
| CC(=O)Nc1cc2c(Oc3ccc(I)cc3)cncc2s1 | > 50000 |  |  |  |
| O=c1nc(-c2cc3c(Oc4ccc(I)cc4)cncc3s2)[nH]o1 | 1120 |  |  |  |
| O=C(NO)c1cc2c(Oc3ccc(I)cc3)cncc2s1 | 540 |  |  |  |
| Nc1cc2c(Oc3ccc(I)cc3)cncc2s1 | > 50000 |  |  |  |
| COc1cccc(-c2ccc(Oc3cncc4sc(-c5nnn[nH]5)cc34)cc2)c1 | 240 | 23000 |  |  |

Results, then the compound that gave them:

| IC50 [1] [nM] | IC50 [2] [nM] | IC50 [3] [nM] | IC50 [4] [nM] | SMILES |
| --- | --- | --- | --- | --- |
| 170 | 7600 | 11300 | 6500 | Fc1ccc(-c2ccc(Oc3cncc4sc(-c5nn[nH]n5)cc34)cc2)cc1 |
| 40 | 14000 |  |  | OCc1ccc(-c2ccc(Oc3cncc4sc(-c5nnn[nH]5)cc34)cc2)cc1 |
| 310 | 21200 | 47000 |  | N#Cc1ccc(-c2ccc(Oc3cncc4sc(-c5nn[nH]n5)cc34)cc2)cc1 |
| 150 | 9700 | 12000 | 4300 | c1ccc(-c2ccc(Oc3cncc4sc(-c5nn[nH]n5)cc34)cc2)cc1 |
| 7500 |  |  |  | Cc1ccc(Oc2cncc3sc(-c4nn[nH]n4)cc23)cc1 |
| 1700 |  |  |  | c1ccc(-c2cccc(Oc3cncc4sc(-c5nn[nH]n5)cc34)c2)cc1 |
| 150 | 1500 | > 50000 |  | Clc1ccccc1-c1ccc(Oc2cncc3sc(-c4nn[nH]n4)cc23)cc1 |
| 230 | 1500 | 1100 |  | Nc1ccc(-c2ccc(Oc3cncc4sc(-c5nn[nH]n5)cc34)cc2)cc1 |
| 90 | 2400 | > 50000 | 2100 | Clc1ccc(-c2ccc(Oc3cncc4sc(-c5nn[nH]n5)cc34)cc2)cc1 |
| 610 |  |  |  | CC(C)(C)c1ccc(Oc2cncc3sc(-c4nn[nH]n4)cc23)cc1 |
| 280 | 1800 | 1700 | 560 | FC(F)(F)c1ccc(-c2ccc(Oc3cncc4sc(-c5nn[nH]n5)cc34)cc2)cc1 |
| 50 | 48000 | > 50000 |  | CN(C)C(=O)c1ccc(-c2ccc(Oc3cncc4sc(-c5nn[nH]n5)cc34)cc2)cc1 |
| 120 | 1900 | > 50000 |  | Clc1cccc(-c2ccc(Oc3cncc4sc(-c5nn[nH]n5)cc34)cc2)c1 |
| 130 | 49000 |  |  | COc1ccc(-c2ccc(Oc3cncc4sc(-c5nn[nH]n5)cc34)cc2)cc1 |
| 10 | 18000 |  | 130 | NC(=O)c1ccc(-c2ccc(Oc3cncc4sc(-c5nn[nH]n5)cc34)cc2)cc1 |
